According to patent publication US9248171B2, “Immunogenic peptides and their use in transplantation” (IMCYSE SA, priority 2008, dated 2016):
Marks after values point to notes of the source that are not given here.

Assays:
[1] = system: Bm12 mouse skin allograft; experiment: Rejection of Bm12 skin graft (MHC class II mismatch) in pre-immunized C57B1/6 mice; assay type: in vivo; conditions: 3 subcutaneous administrations in CFA/IFA at fortnight intervals
From the text: The Bm12 mice constitute a variant of the C57B1/6 mice in which a spontaneous mutation has occurred in the I-Ab locus. This mutation consists of 3 amino acid substitutions in a stretch of 5 amino acids and thereby generates a limited MHC class II mismatch between Bm12 mice and C57B1/6 wild type mice. This mismatch is nevertheless sufficient as to elicit rejection of Bm12 mouse skin allograft.
The 3 substituted amino acids are Ile67Phe, Arg70Gln and Thr71Lys located in the third hypervariable region of the beta chain. A synthetic peptide encompassing these residues was made and has the sequence: PEFLEQKRA (SEQ ID. NO: 10). This peptide was modified according to the invention by incorporation of a thioreductase consensus sequence, resulting in the exemplary immunogenic peptide CGHCPEFLEQKRA (SEQ ID. NO: 11).
Cytotoxic CD4+ regulatory T cells towards the modified peptide of SEQ ID. NO: 11 are elicited in C57B1/6 mice by 3 subcutaneous administration of the peptide in CFA/IFA given at fortnight intervals. Such mice are then grafted with the skin of Bm12 mice.

[2] = system: heterotopic male heart transplant; experiment: Heterotopic male heart transplant in pre-immunized syngeneic female mice; assay type: in vivo, C57B1/6 mice; conditions: 3 subcutaneous injections at fortnight intervals in CFA/IFA
From the text: To establish the proof of concept that cytolytic regulatory CD4+ T cells of the present invention can prevent rejection of a vascularized organ, the model of heterotopic heart transplantation is used. This method is well known in the art, as described for instance in Kadner A et al, European Journal of Cardio-thoracic Surgery (2000) 17: 474-481. Briefly, the method consists in abdominal implantation of the heart in a non-working setting, namely the heart is vascularized but not supporting the circulation. This allows long-term follow-up of the graft and multiple biopsies without killing the experimental animal.
Hearts from C57BL/6 males are grafted using such technique in the abdomen of syngeneic females. The rejection process, which is mediated by expression of H-Y-derived antigens in both MHC class I and MHC class II determinants, is mainly due to the circulation of recipient's specific CD4+ T cells that are activated by recognition of alloantigen-derived peptides by graft endothelial cells. Such CD4+ T cells produce IL-2 and IFN-gamma, driving more inflammation and providing help for the maturation of specific CD8+ T cells.
C57B1/6 female mice are pre-immunized before receiving the male allograft with peptides of either SEQ ID NO:5, SEQ ID NO:6 or a sham peptide. This is carried out by 3 subcutaneous injections of peptides made at fortnight intervals in either CFA/IFA. Thereafter, all mice receive a heterotopic male heart transplant.

[3] = system: male C57B1/6 skin allograft; experiment: Skin graft rejection, male skin onto pre-immunized syngeneic female mice (naive mice); assay type: in vivo, C57B1/6 mice; conditions: for Rejection rate Day 10 / Rejection rate Day 20: 3 SC injections, rejected mice/mice, rejection = more than 50% of graft surface necrotic; for Effect of pre-immunization on skin graft rejection (in words): pre-immunization in either CFA/IFA or alum
Procedure: One of the most studied models of graft rejection is skin grafting between syngeneic animals of different sex. Thus, the […] contains a number of genes, in particular the Dby gene, which encodes a minor histocompatibility antigen that elicits strong CD4+ T cell activation and chronic rejection in females. […] T cell epitopes from the Dby antigen have been described and selected as shown in Example 1 (peptide of SEQ ID. NO: 5). A synthetic peptide of SEQ ID. NO: 6 was prepared. Groups of 3 female C57B1/6 mice (H-2b haplotype) were made for testing the capacity of modified peptides of SEQ ID NO:1 to elicit tolerance to the skin allograft. Where applicable, pre-immunization was carried out by 3 subcutaneous injections of peptides containing either the natural epitope or its modified counterpart. Injections were made at fortnight intervals in either CFA/IFA or alum. Groups were therefore as follows: • Group 1: skin allograft without preimmunization • Group 2: skin autograft • Group 3: preimmunization with peptide of SEQ ID. NO: 6 emulsified in CFA (first immunization) and IFA for second and third immunization) • Group 4: same as in Group 3, but with alum as an adjuvant • Group 5: same as in Group 3, but using the natural peptide of SEQ ID. NO: 5 All these mice, except for Group 2 mice, received a male C57B1/6 skin allograft of 1 cm2, either directly (Group 1) or 2 weeks after the last immunization for Groups 3, 4 and 5. Group 2 mice received and autograft. Rejection rate was evaluated at day 10 and 20 and judged effective if more than 50% of the graft surface was necrotic.

[4] = system: APC (antigen-presenting cells); experiment: Apoptosis of peptide-loaded APC (Annexin V binding) induced by CD4+ T cells from immunized mice (Dby peptides); assay type: cell-based, C57B1/6 mice; conditions: 10 μg peptide SC in CFA then IFA; APC loaded with SEQ ID. NO: 5 or SEQ ID. NO: 6
Procedure: Groups of C57BL/6 female mice were immunized with 10 μg of peptide of SEQ ID. NO: 6 emulsified in CFA (complete Freund's adjuvant) for the first SC (subcutaneous) injection and in IFA (incomplete Freund's adjuvant) for the two subsequent immunizations. The spleen of such mice was retrieved 10 days after the last immunization and CD4+ T cells were obtained by cell sorting using magnetic beads.
These CD4+ T cells were assayed in vitro for their capacity to induce apoptosis of APC (antigen-presenting cells). Thus, spleen cells of naïve C57B1/6 mice were deprived of CD4+ T cells by magnetic bead sorting and used as APC. Such APC were loaded with peptides of either SEQ ID. NO: 5 or of SEQ ID. NO: 6 by incubation for 16 h at room temperature. The cells were then washed to eliminate residual free peptides.

Sequence | Rejection of Bm12 skin graft after preimmunization [1] | Graft findings (cellular infiltration, endothelitis, chronic vascular lesions) [2] | Outcome of transplanted heart after pre-immunization [2] | Rejection rate Day 10 ([3]; pre-immunization in CFA/IFA) | Rejection rate Day 20 ([3]; pre-immunization in CFA/IFA) | Rejection rate Day 10 ([3]; pre-immunization in alum) | Rejection rate Day 20 ([3]; pre-immunization in alum) | Effect of pre-immunization on skin graft rejection (in words) [3] | APC apoptosis (surface binding of Annexin V) induced by CD4+ T cells of mice immunized with the peptide [4]
CGHCPEFLEQKRA (redox motif + mutated version of I-Ab locus) [SEQ ID. NO: 11] | reject the B12m graft unless they are preimmunized with the peptide of SEQ ID. NO: 11 | – | – | – | – | – | – | – | –
CHGCFNSNRANSS (redox motif + T cell epitope of Dby antigen) [SEQ ID. NO: 6] | – | absence of cellular infiltration, of signs of endothelitis and of chronic vascular lesions | tolerate the graft | 0/3 | 0/3 | 0/3 | 0/3 | fully prevents graft rejection | induced into apoptosis
FNSNRANSS (T cell epitope of Dby antigen) [SEQ ID. NO: 5, reference compound] | – | – | show rejection of the transplanted heart | 2/3 | 2/3** | – | – | accelerates the rejection | did not induce any significant degree of APC apoptosis
